Experimental data reported in US7875619B2, “Hetero substituted sodium channel blockers” (Parion Sciences, Inc., priority 2004, dated 2011).
Where a name gives a salt, the structure may show the parent alone.

Legend:
[1] = target: T1, sodium channel (ENaC), canine bronchial epithelia (Canis lupus familiaris, UniProt A0A8I3MKE6+A0A8I3Q679+Q95165); experiment: In vitro measure of sodium channel blocking activity: inhibition of short circuit current (ISC) in airway epithelial monolayers in Ussing chambers; format: cell-based; conditions: mean of N runs; for Fold Amiloride** (PSA 4022 = 100) Mean: relative potency for PSA 4022 = 100 using EC50 from PSA 4022 in same run
T1 construct: endogenous in cells; host or cells: primary canine bronchial epithelial cells cultured at air-liquid interface, mounted in Ussing chambers
T1 sequence (A0A8I3Q679 1-649): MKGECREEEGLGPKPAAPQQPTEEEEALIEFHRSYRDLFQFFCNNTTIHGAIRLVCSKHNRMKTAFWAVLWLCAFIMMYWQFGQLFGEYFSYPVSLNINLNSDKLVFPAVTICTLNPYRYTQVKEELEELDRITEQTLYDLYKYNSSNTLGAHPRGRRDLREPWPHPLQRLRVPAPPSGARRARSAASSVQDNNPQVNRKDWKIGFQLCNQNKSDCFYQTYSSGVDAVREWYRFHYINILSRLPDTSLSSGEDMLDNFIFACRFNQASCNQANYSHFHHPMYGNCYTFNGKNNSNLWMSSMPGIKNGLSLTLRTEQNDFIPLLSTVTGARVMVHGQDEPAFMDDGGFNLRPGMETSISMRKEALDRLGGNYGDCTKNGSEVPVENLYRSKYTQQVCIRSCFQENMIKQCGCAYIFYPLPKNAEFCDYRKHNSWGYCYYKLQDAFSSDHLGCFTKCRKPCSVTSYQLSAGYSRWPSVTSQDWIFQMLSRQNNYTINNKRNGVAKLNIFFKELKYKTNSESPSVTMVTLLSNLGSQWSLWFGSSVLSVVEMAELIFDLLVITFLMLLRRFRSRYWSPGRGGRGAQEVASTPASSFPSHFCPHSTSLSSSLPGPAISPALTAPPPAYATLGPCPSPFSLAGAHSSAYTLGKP
T1 sequence (Q95165 1-641): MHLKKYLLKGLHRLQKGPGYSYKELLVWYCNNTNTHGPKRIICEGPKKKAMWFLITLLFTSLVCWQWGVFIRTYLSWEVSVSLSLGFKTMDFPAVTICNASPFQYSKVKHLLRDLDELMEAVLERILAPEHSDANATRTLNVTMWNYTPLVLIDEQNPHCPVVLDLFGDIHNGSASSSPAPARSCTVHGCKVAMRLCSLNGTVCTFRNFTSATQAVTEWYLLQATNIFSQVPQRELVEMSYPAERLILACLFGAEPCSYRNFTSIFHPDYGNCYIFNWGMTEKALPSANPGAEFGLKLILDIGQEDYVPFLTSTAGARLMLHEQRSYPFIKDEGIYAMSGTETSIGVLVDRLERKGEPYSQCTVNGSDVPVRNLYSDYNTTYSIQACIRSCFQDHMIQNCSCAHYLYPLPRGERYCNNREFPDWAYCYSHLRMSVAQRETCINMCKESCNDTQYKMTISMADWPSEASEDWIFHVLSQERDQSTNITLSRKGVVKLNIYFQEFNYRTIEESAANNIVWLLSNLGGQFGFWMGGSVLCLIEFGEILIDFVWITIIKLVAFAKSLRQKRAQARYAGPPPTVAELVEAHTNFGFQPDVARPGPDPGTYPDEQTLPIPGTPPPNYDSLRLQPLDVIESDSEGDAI
T1 sequence (A0A8I3MKE6 1-646): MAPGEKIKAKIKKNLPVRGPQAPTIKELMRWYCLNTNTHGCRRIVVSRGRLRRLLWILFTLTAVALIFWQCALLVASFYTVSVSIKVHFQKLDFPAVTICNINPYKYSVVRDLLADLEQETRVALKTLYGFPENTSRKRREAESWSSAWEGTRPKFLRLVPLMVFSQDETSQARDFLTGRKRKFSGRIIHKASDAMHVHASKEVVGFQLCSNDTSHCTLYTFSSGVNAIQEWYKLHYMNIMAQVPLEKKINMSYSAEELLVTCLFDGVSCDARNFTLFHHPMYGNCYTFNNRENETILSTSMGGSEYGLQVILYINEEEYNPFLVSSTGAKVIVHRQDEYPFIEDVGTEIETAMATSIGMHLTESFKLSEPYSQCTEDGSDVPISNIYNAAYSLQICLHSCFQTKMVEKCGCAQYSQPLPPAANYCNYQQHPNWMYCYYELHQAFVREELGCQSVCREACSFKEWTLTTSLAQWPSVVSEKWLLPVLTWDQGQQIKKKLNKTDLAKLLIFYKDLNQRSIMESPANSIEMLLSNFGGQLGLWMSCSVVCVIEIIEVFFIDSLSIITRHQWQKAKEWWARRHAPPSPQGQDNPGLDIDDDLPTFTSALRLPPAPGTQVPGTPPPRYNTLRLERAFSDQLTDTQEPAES
Experimental: One assay used to assess mechanism of action and/or potency of the compounds of the present invention involves the determination of lumenal drug inhibition of airway epithelial sodium currents measured under short circuit current (ISC) using airway epithelial monolayers mounted in Ussing chambers. Cells obtained from freshly excised human, dog, sheep or rodent airways are seeded onto porous 0.4 micron Snapwell™ Inserts (CoStar), cultured at air-liquid interface (ALI) conditions in hormonally defined media, and assayed for sodium transport activity (ISC) while bathed in Krebs Bicarbonate Ringer (KBR) in Using chambers. All test drug additions are to the lumenal bath with half-log dose addition protocols (from 1×10^−11 M to 3×10^−5M), and the cumulative change in ISC (inhibition) recorded. All drugs are prepared in dimethyl sulfoxide as stock solutions at a concentration of 1×10^−2 M and stored at −20° C. […] After the maximal concentration (5×10^−5 M) is administered, the lumenal bath is exchanged three times with fresh drug-free KBR solution, and the resultant ISC measured after each wash for approximately 5 minutes in duration. Reversibility is defined as the percent return to the baseline value for sodium current after the third wash. All data from the voltage clamps are collected via a computer interface and analyzed off-line.
Dose-effect relationships for all compounds are considered and analyzed by the Prism 3.0 program.
PSA 4022 was also tested in each assay as a positive control.

Structure (SMILES) | melting point | EC50 [1] [nM] | Fold Amiloride** (PSA 4022 = 100) Mean [1]
COC(=O)C(N)CCOc1ccc(CCCCNC(=N)NC(=O)c2nc(Cl)c(N)nc2N)cc1 (stereo not shown) (as salt: hydrochloride) [PSA 17587, 2-amino-4-(4-{4-[N′-(3,5-diamino-6-chloropyrazine-2-carbonyl)-guanidino]butyl}phenoxy)butyric acid methyl ester hydrochloride] | 88 to 90 °C | – | –
N=C(NCCCCc1ccc(OCCC(N)C(=O)O)cc1)NC(=O)c1nc(Cl)c(N)nc1N (stereo not shown) [PSA 17666, 2-amino-4-(4-{4-[N′-(3,5-diamino-6-chloropyrazine-2-carbonyl)-guanidino]butyl}phenoxy)butyric acid] | 178 to 180 °C | 29.3 | 34.8
N=C(NCCCCc1ccc(OCCNCC(N)C(N)=O)cc1)NC(=O)c1nc(Cl)c(N)nc1N (stereo not shown) (as salt: hydrochloride) [PSA 18704, 2-amino-3-[2-(4-{4-[N′-(3,5-diamino-6-chloropyrazine-2-carbonyl)-guanidino]butyl}phenoxy)ethylamino]propionamide tri-hydrochloride] | 160 °C | – | –
COC(=O)[C@H](N)CCCc1ccc(CCCCNC(=N)NC(=O)c2nc(Cl)c(N)nc2N)cc1 [PSA 19603, 2-(R)-amino-5-(4-{4-[N′-(3,5-diamino-6-chloropyrazine-2-carbonyl)-guanidino]butyl}phenyl)pentanoic acid methyl ester] | 76 to 79 °C | 32.3 | 39.4
N=C(NCCCCc1ccc(OCCNCC(N)C(N)=O)cc1)NC(=O)c1nc(Cl)c(N)nc1N (stereo not shown) [PSA 18704, 2-amino-3-[2-(4-{4-[N′-(3,5-diamino-6-chloropyrazine-2-carbonyl)-guanidino]butyl}phenoxy)ethylamino]propionamide tri-hydrochloride] | – | 14.1 | 90.2
N=C(NCCCCc1ccc(N(CCN(C[C@H](O)CO)C[C@H](O)CO)C[C@H](O)CO)cc1)NC(=O)c1nc(Cl)c(N)nc1N [PSA 16311, N-(4{4-[{2-[N,N-bis-((2S)-2,3-dihydroxypropyl)amino]ethyl}-N-((2S)-2,3-dihydroxypropyl)amino]phenyl}butyl)-N′-(3,5-diamino-6-chloropyrazine-2-carbonyl)guanidine] | – | 33.2 | 25.6
N=C(NCCCCc1ccc(CCC[C@@H](N)C(=O)O)cc1)NC(=O)c1nc(Cl)c(N)nc1N [PSA 23184, 2-(R)-amino-5-(4-{4-[N′-(3,5-diamino-6-chloropyrazine-2-carbonyl)-guanidino]butyl}phenyl)pentanoic acid] | 190 to 192 °C (dec.) | 17 | 43.3
N=C(NCCCCc1ccc(NC(=O)CCN)cc1)NC(=O)c1nc(Cl)c(N)nc1N [PSA 14568, dihydrochloride] | – | 3.92 | 131
Cl.N=C(N)NCCNC(=O)c1ccc(CCCCNC(=N)NC(=O)c2nc(Cl)c(N)nc2N)cc1 [PSA 11834, 4-{4-[N′-(3,5-diamino-6-chloropyrazine-2-carbonyl)guanidino]butyl}-N-(2-guanidinoethyl)benzamide hydrochloride] | – | 3.68 | 276
